pIC50: −log10 of the molar value. Active and inactive are the calls of the source. No cut-off for these calls is given here.
Key:
[1] = Cytotoxicity against human MRC5 cells assessed as reduction in cell viability incubated for 6 days by Hoechst 33342 staining based microscopic analysis; settings: time 6 day
Human betaherpesvirus 5 [2] = assay: Antiviral activity against Human Cytomegalovirus infected in human MRC5 cells assessed as reduction in infection rate incubated for 6 days by Hoechst 33342 staining based microscopic analysis; type: functional, cell-based; settings: for pIC50: Human betaherpesvirus 5, MRC5, 144 h, read-out: IC50; for IC50: mrc5
[3] = Selectivity index, ratio of CC50 for human MRC5 cells to IC50 for human Cytomegalovirus infected in human MRC5 cells incubated for 6 days; type: toxicity, cell-based; settings: time 6 day, read-out: Ratio CC50/IC50
[4] = Cytotoxicity against human ARPE-19 cells assessed as reduction in cell viability incubated for 6 days by Hoechst 33342 staining based microscopic analysis; settings: time 6 day
Human betaherpesvirus 5 [5] = assay: Antiviral activity against human Cytomegalovirus infected in human ARPE-19 cells assessed as reduction in infection rate incubated for 6 days by Hoechst 33342 staining based microscopic analysis; type: functional, cell-based; settings: for IC50: arpe-19
Human betaherpesvirus 5 [6] = assay: Antiviral activity against human Cytomegalovirus infected in human ARPE-19 cells assessed as reduction in infection rate incubated for 10 days by Hoechst 33342 staining based microscopic analysis; type: functional, cell-based; settings: for pIC50: Human betaherpesvirus 5, ARPE-19, 240 h, read-out: IC50
Human betaherpesvirus 5 [7] = assay: Antiviral activity against human Cytomegalovirus harboring ANCHOR infected in human MRC5 cells assessed as reduction in infection rate at 0.15 to 0.625 uM incubated for 6 days by Hoechst 33342 staining based microscopic analysis relative to control; type: functional, cell-based; settings: dose microM 0.625-0.15, time 6.0 day
Human betaherpesvirus 5 [8] = assay: Antiviral activity against human Cytomegalovirus harboring ANCHOR infected in ARPE-19 cells assessed as reduction in replication by measuring UL44 expression at 0.6 to 0.15 uM by immunofluorescence B31assay; type: functional, cell-based; settings: dose microM 0.625-0.15, time 10.0 day
[9] = Selectivity index, ratio of CC50 for human MRC5 cells to IC50 for human Cytomegalovirus infected in human ARPE-19 cells incubated for 10 days; type: toxicity, cell-based; settings: time 6 day, read-out: Ratio CC50/IC50
[10] = Drug uptake in rabbit RK13 cells incubated for 24 hrs by Hoechst staining based microscopic analysis; type: ADME, cell-based, Oryctolagus cuniculus; settings: rk13, 24 h
Human betaherpesvirus 5 [11] = assay: Antiviral activity against human Cytomegalovirus infected in human ARPE-19 cells assessed as reduction in infection rate incubated for 12 days by Hoechst 33342 staining based microscopic analysis; type: functional, cell-based; settings: Human betaherpesvirus 5, ARPE-19, 288 h
[12] = Selectivity index, ratio of CC50 for human MRC5 cells to IC50 for human Cytomegalovirus infected in human ARPE-19 cells incubated for 12 days; type: toxicity, cell-based; settings: time 6 day, read-out: Ratio CC50/IC50
Human betaherpesvirus 5 [13] = assay: Antiviral activity against human Cytomegalovirus infected in human ARPE-19 cells assessed as reduction in viral replication incubated for 13 days by Hoechst 33342 staining based microscopic analysis; type: functional, cell-based; settings: Human betaherpesvirus 5, ARPE-19, 312 h
[14] = Selectivity index, ratio of CC50 for human MRC5 cells to IC50 for human Cytomegalovirus infected in human ARPE-19 cells incubated for 13 days; type: toxicity, cell-based; settings: time 6 day, read-out: Ratio CC50/IC50
Human betaherpesvirus 5 [15] = assay: Antiviral activity against human Cytomegalovirus infected in human MRC5 cells assessed as reduction in viral replication incubated for 6 days by Hoechst 33342 staining based microscopic analysis; type: functional, cell-based; settings: Human betaherpesvirus 5, MRC5, 144 h

SMILES	CC50 at 144 h [1] [µM]	pIC50 (Human betaherpesvirus 5 [2])	selectivity ratio at 144 h [3]	CC50 at 144 h [4] [µM]	IC50 (Human betaherpesvirus 5 [2])	IC50 (Human betaherpesvirus 5 [5])	further results
Fc1cc(F)c(F)c(-c2c3nc(c4ccc([nH]4)c(-c4c(F)c(F)cc(F)c4F)c4ccc([nH]4)c(-c4cccnc4)c4ccc2[nH]4)C=C3)c1F	12.8	5.96	11.6				
Cc1ccc(F)c(-c2c3nc(c4ccc([nH]4)c(-c4cc(C)ccc4F)c4ccc([nH]4)c(-c4cc(C)ccc4F)c4ccc2[nH]4)C=C3)c1	> 50			> 50	Not Active	Not Active	
Fc1cc(F)c(F)c(-c2c3nc(c4ccc([nH]4)c(-c4c(F)c(F)cc(F)c4F)c4ccc([nH]4)c(-c4c(F)c(F)nc(F)c4F)c4ccc2[nH]4)C=C3)c1F	3.4	7.05	37.8				pIC50 (Human betaherpesvirus 5 [6]): 7.30; Activity (Human betaherpesvirus 5 [7]): Active; Activity (Human betaherpesvirus 5 [8]): Active; selectivity ratio at 144 h [9]: 450
CN(C)c1c(F)c(F)c(-c2c3nc(c4ccc([nH]4)c(-c4c(F)c(F)c(N(C)C)c(F)c4F)c4ccc([nH]4)c(-c4c(F)c(F)cc(F)c4F)c4ccc2[nH]4)C=C3)c(F)c1F	> 50	5.72	> 26.2				pIC50 (Human betaherpesvirus 5 [6]): 5.73; selectivity ratio at 144 h [9]: 26.6
Fc1cc(F)c(F)c(-c2c3ccc([nH]3)c(-c3c(F)c(F)cc(F)c3F)c3nc(c4ccc([nH]4)c(-c4c(F)c(F)cc(F)c4F)c4ccc2[nH]4)C=C3)c1	21.5	5.94	18.5				pIC50 (Human betaherpesvirus 5 [6]): 6.30; Drug uptake [10]: Active; selectivity ratio at 144 h [9]: 62
Fc1cc(-c2c3nc(c4ccc([nH]4)c(-c4cc(F)c(F)c(F)c4F)c4ccc([nH]4)c(-c4cc(F)c(F)c(F)c4F)c4ccc2[nH]4)C=C3)c(F)c(F)c1F	> 50	5.19	> 7				pIC50 (Human betaherpesvirus 5 [11]): 5.43; selectivity ratio at 144 h [12]: > 13
Fc1cc(-c2c3ccc([nH]3)c(-c3c(F)c(F)cc(F)c3F)c3nc(c4ccc([nH]4)c(-c4c(F)c(F)cc(F)c4F)c4ccc2[nH]4)C=C3)ccn1	0.65	7.22	10.8				pIC50 (Human betaherpesvirus 5 [6]): 7.30; selectivity ratio at 144 h [9]: 114
Fc1cc(F)c(F)c(-c2c3ccc([nH]3)c(-c3c(F)c(F)c(F)c(F)c3F)c3nc(c4ccc([nH]4)c(-c4c(F)c(F)c(F)c(F)c4F)c4ccc2[nH]4)C=C3)c1F	3.03	6.51	9.77				pIC50 (Human betaherpesvirus 5 [6]): 6.51; selectivity ratio at 144 h [9]: 151
O=[N+]([O-])c1cc(F)cc(-c2c3ccc([nH]3)c(-c3c(F)c(F)cc(F)c3F)c3nc(c4ccc([nH]4)c(-c4c(F)c(F)cc(F)c4F)c4ccc2[nH]4)C=C3)c1	50				Not Active		
Fc1ccc(F)c(-c2c3nc(c4ccc([nH]4)c(-c4cc(F)ccc4F)c4ccc([nH]4)c(-c4cc(F)ccc4F)c4ccc2[nH]4)C=C3)c1	> 50			> 50	Not Active	Not Active	
O=[N+]([O-])c1ccc(-c2c3ccc([nH]3)c(-c3c(F)c(F)cc(F)c3F)c3nc(c4ccc([nH]4)c(-c4c(F)c(F)cc(F)c4F)c4ccc2[nH]4)C=C3)c(C(F)(F)F)c1	11	5.61	4.49				pIC50 (Human betaherpesvirus 5 [6]): 6.48; selectivity ratio at 144 h [9]: 18.6
COc1ccc(F)c(-c2c3nc(c4ccc([nH]4)c(-c4cc(OC)ccc4F)c4ccc([nH]4)c(-c4cc(OC)ccc4F)c4ccc2[nH]4)C=C3)c1	> 50			> 50	Not Active	Not Active	
CN(C)c1c(F)c(F)c(-c2c3ccc([nH]3)c(-c3c(F)c(F)cc(F)c3F)c3nc(c4ccc([nH]4)c(-c4c(F)c(F)cc(F)c4F)c4ccc2[nH]4)C=C3)c(F)c1F	> 50	5.68	> 23.6				IC50 (Human betaherpesvirus 5 [6]; arpe-19): Not Active
O=[N+]([O-])c1ccc(-c2c3ccc([nH]3)c(-c3c(F)c(F)cc(F)c3F)c3nc(c4ccc([nH]4)c(-c4c(F)c(F)cc(F)c4F)c4ccc2[nH]4)C=C3)s1	4.17	6.57	15.6				pIC50 (Human betaherpesvirus 5 [13]): 6.89; selectivity ratio at 144 h [14]: 385
Fc1cc(-c2c3nc(c4ccc([nH]4)c(-c4ccnc(F)c4)c4ccc([nH]4)c(-c4ccnc(F)c4)c4ccc2[nH]4)C=C3)ccn1	6.25	6.34	13	6.17			pIC50 (Human betaherpesvirus 5 [5]; Human betaherpesvirus 5, ARPE-19, 144 h, read-out: IC50): 6.82
O=S(=O)(O)CCNc1c(F)c(F)c(-c2c3nc(c4ccc([nH]4)c(-c4c(F)c(F)c(NCCS(=O)(=O)O)c(F)c4F)c4ccc([nH]4)c(-c4c(F)c(F)c(NCCS(=O)(=O)O)c(F)c4F)c4ccc2[nH]4)C=C3)c(F)c1F	> 50			> 50	Not Active	Not Active	
O=[N+]([O-])c1cc(F)cc(-c2c3nc(c4ccc([nH]4)c(-c4cc(F)cc([N+](=O)[O-])c4)c4ccc([nH]4)c(-c4c(F)c(F)cc(F)c4F)c4ccc2[nH]4)C=C3)c1	36.7				Not Active		
Fc1ccccc1-c1c2nc(c3ccc([nH]3)c(-c3ccccc3F)c3ccc([nH]3)c(-c3ccccc3F)c3ccc1[nH]3)C=C2	> 50			> 50	Not Active	Not Active	
Fc1cc(-c2c3nc(c4ccc([nH]4)c(-c4cc(F)c(F)c(F)c4)c4ccc([nH]4)c(-c4cc(F)c(F)c(F)c4)c4ccc2[nH]4)C=C3)cc(F)c1F	> 50	5.20	> 7	> 50		Not Active	
Fc1cc(F)c(-c2c3nc(c4ccc([nH]4)c(-c4c(F)cc(F)cc4F)c4ccc([nH]4)c(-c4c(F)cc(F)cc4F)c4ccc2[nH]4)C=C3)c(F)c1	> 50		> 9	> 50		Not Active	pIC50 (Human betaherpesvirus 5 [15]): 5.25
Fc1cc(F)c(F)c(-c2c3nc(c4ccc([nH]4)c(-c4c(F)c(F)cc(F)c4F)c4ccc([nH]4)c(-c4ccccc4)c4ccc2[nH]4)C=C3)c1F	22.3	5.18	3.38				
Fc1cc(F)cc(-c2c3nc(c4ccc([nH]4)c(-c4cc(F)cc(F)c4)c4ccc([nH]4)c(-c4cc(F)cc(F)c4)c4ccc2[nH]4)C=C3)c1	> 50			> 50	Not Active	Not Active	

From ChEMBL document CHEMBL4699427, “A3- and A2B-fluorocorroles: synthesis, X-ray characterization and antiviral activity evaluation against human cytomegalovirus infection” (RSC Med Chem, 2020)
